From EP4652992A1, “OPHTHALMIC COMPOSITION FOR PREVENTING AND TREATING CONJUNCTIVA EPITHELIUM DAMAGE AND ASSOCIATED DISCOMFORT CAUSED BY HYPOTONIZING FORMULATIONS” (FB Vision S.p.A., priority 2024, dated 2025)
Structures can show the parent of a compound that is named as a salt.

Experiments:
[1] = tested on: human conjunctival epithelial cells (HCE); test: Cell growth and vitality of HCE cells (trypan blue exclusion test and MTT assay); format: cell-based
Description: In vitro tests on human conjunctival epithelial cells (HCE) for the experimental verification of the cytoprotective and antioxidant activity of beta caryophyllene (BCP) on the oxidative damage induced by anti-glaucoma medicines (AD). Characterization of the cytoprotective effects of beta-caryophyllene (BCP) on the human conjunctival epithelial cells exposed to oxidative and mitochondrial stress. This stress mimics the irritant and inflammatory action of hypotonizing ophthalmic medicines on the external structures of the human eye.
The HCE cells were exposed for 24 and 48 hours with increasing concentrations of BRIM (from 0.25 up to 4 mg/mL), DZL (from 0.086 up to 0.43%) and TFP (from 0.9 up to 30 µg/mL), alone and in combination with various concentrations of BCP (from 1.25 up to 40 µM), and the cell growth and vitality were evaluated respectively using the trypan blue exclusion test and the MTT assay. […] The IC50 ([…]) values for BRIM and DZL on their own are given respectively in the accompanying Figures 1 and 2. The in vitro interactions between BCP and BRIM or DZL, as illustrated in Figures 3A and B, were determined by the ÿE model of non-parametric response surface analysis. […] In particular, the most advantageous combinations were 10 µM BCP with 2 mg/ml BRIM and 2.5 µM BCP with 0.25% DZL. Of the combinations selected, only the combination 10 µM BCP and 2 mg/mL BRIM, which reflects the commercial formulation of the eye drops for treatment, was studied further. All the statistical comparisons were performed with respect to vCTR (vehicle control).

HCE cells [2] = test: Apoptosis, cytofluorimetric analysis; format: cell-based, human; details: BRIM/BCP with respect to BRIM
Method: Figure 5 is a bar graph showing the percentage values of apoptotic cells (early and late) and necrotic cells in experimental groups exposed for 48 hours to BRIM and BCP.

HCE cells [3] = details: 3 - 24 hours, any analyzed moment, JC-1 dye
Method: After the treatments, the ÿÿm was analyzed using JC-1 dye.
Measurements of mitochondrial activity, performed by means of experiments over time (3 - 24 hours), were evaluated by means of coloring with JC-1 dye.

HCE cells [4] = details: 48 hours of incubation
Method: The distribution of cell cycle phases is shown using PI dyeing and analyzed using flow cytometry. The bar charts show the percentage of cells in each phase and represent the average ± SE of the results of three independent experiments; one-way ANOVA followed by Bonferroni's t-test; *p<0.05 with respect to vCTR.
The cells were treated for 24 hours and 48 hours, and cytofluorimetric analyses of the cell cycle phase were performed for the distribution (Figure 4) and the apoptosis (Figure 5).

HCE cells [5] = details: 24 hours, vs. vCTR
Method: After 24 hours of treatment, intracellular production of ROS was analyzed using DCHF-DA with respect to vCTR. The values shown represent the average ± SE of the results of three independent experiments; one-way ANOVA followed by the Holm-Šidák method; *p<0.05 with respect to vCTR; p<0.05 BRIM/BCP with respect to BRIM dyeing with fluorescent dye. The values express the intensity of the fluorescence (Arbitrary Units, AU) and represent the average ± SE of the results of three independent experiments; one-way ANOVA in the rows; *p<0.05 with respect to vCTR.

C=C1CC/C=C(\C)CC[C@@H]2[C@@H]1CC2(C)C [BCP, (1R,4E,9S)-4,11,11-Trimethyl-8-methylidenebicyclo[7.2.0]undec-4-ene]
protective effects of BCP in the cells treated with BRIM and DZL ([1]; HCE cells, 48 hours of incubation, BCP from 1.25 up to 40 µM): Significant protective effects
most advantageous combination, BCP concentration with BRIM ([1]; with 2 mg/ml BRIM, non-parametric response surface analysis): 10 µM
most advantageous combination, BCP concentration with DZL ([1]; with 0.25% DZL, non-parametric response surface analysis): 2.5 µM
early apoptosis reduced (apoptosis induced by BRIM) (HCE cells [2]; 24 and 48 hours): approximately 35%
late apoptosis decrease (apoptosis induced by BRIM) (HCE cells [2]; 48 hours): approximately 15%

CC(C)OC(=O)CCC/C=C\C[C@@H]1[C@@H](/C=C/C(F)(F)COc2ccccc2)[C@H](O)C[C@@H]1O [TFP, tafluprost]
cytotoxic effects ([1]; HCE cells, 24 and 48 hours, up to concentrations of 30 µg/mL): no cytotoxic effects

Brc1c(NC2=NCCN2)ccc2nccnc12 [BRIM, Brimonidine tartrate]
mitochondrial membrane potential (ÿÿm) (HCE cells [3]): marked mitochondrial depolarization
S phase (HCE cells [4]): significant decreases
percentage of cells in the G2/M phase (HCE cells [4]; vehicle control 12%, 2 mg/mL BRIM, 10 µM BCP): 33.73%
increase in ROS production (HCE cells [5]): approximately 30%
